Literature values as cited in patent publication US9084801B2, “Use of an omega-3 lipid-based emulsion following ischemic injury to provide protection and recovery in human organs” (THE TRUSTEES OF COLUMBIA UNIVERSITY IN THE CITY OF NEW YORK, priority 2005, dated 2015).

Tests used:
[1] = tested on: adult Sprague-Dawley rats, kainate-induced seizures; details: intravenous, given before and/or after neurologic insult
[2] = tested on: adult Sprague-Dawley rats, global ischemia via four vessel occlusion; details: intravenous, given before and/or after neurologic insult

## CC/C=C\C/C=C\C/C=C\CCCCCCCC(=O)O [α-linolenic acid]
[1]
  protection in kainate-induced seizures: protective
[2]
  protection in global ischemia: protective
